Reference: patent US20240066027A1 (DOMAIN THERAPEUTICS, priority 2020, published 2024)
Counter-ions that a name gives are not always drawn.

target: T1, human PAR-2 (hPAR-2) receptor expressed in HEK-293 T cells in an endogenous manner (Homo sapiens, UniProt P55085); assay: In vitro human PAR-2 functional antagonist activity using calcium assays (Fluo4AM, FLIPR Tetra); assay type: cell-based; conditions: HEK-293 T cells stimulated by an EC80 of the 2-Furoyl-LIGRLO-NH2 peptide after 10 min incubation with compound; 20 concentrations, duplicate, two independent experiments
T1 construct: human PAR-2 (hPAR-2) receptor expressed in HEK-293 T cells in an endogenous manner; endogenous in cells; host or cells: HEK-293 T cells
T1 sequence (P55085 26-397): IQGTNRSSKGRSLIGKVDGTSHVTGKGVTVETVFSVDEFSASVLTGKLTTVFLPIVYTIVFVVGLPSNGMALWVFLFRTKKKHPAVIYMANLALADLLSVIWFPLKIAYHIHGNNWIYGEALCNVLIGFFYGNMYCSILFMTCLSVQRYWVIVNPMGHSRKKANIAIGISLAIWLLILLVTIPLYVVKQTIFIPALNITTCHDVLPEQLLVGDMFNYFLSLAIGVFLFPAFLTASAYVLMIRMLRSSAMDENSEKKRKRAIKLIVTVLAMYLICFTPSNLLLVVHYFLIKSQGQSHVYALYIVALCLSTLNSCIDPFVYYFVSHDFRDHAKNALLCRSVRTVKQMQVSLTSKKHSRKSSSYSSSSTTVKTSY
In short: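 Fluo4AM-loaded HEK-293 T cells were exposed to compound for 10 min to read agonist effect. They were then stimulated with an EC80 of 2-Furoyl-LIGRLO-NH2 and intracellular calcium was recorded for 5 more min on FLIPR. Antagonism was scored against buffer basal and EC80 agonist-alone signals.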

Question: How did the IC50 turn out when `CC(C)(C)c1nn(-c2ccc(Cl)c(F)c2)c2ccc(C(=O)N3CCNC(=O)C3(C)C)nc12` [Example 75] was run?
Answer: Its IC50 is 20 to 10000 nM.

Question: Which IC50 does the source give for `Cc1ccc(-c2cn(CC(C)C)c3nc(C(=O)N4CCN(c5cc(C)c(C(=O)O)c(C)n5)CC4(C)C)ccc23)cc1F` [Example 142, 6-(4-(3-(3-fluoro-4-methylphenyl)-1-isobutyl-1H-pyrrolo[2,3-b]pyridine-6-carbonyl)-3,3-dimethylpiperazin-1-yl)-2,4-dimethylnicotinic acid] here?
Answer: Its IC50 is under 20 nM.

Question: Which IC50 does the source give for `CC(C)(C(N)=O)c1ccnc(N2CCN(C(=O)c3ccc4c(-c5ccc(Cl)c(F)c5)cn(C(C)(C)C)c4n3)C(C)(C)C2)c1` [Example 177, 2-(2-(4-(1-(tert-butyl)-3-(4-chloro-3-fluorophenyl)-1H-pyrrolo[2,3-b]pyridine-6-carbonyl)-3,3-dimethylpiperazin-1-yl)pyridin-4-yl)-2-methylpropanamide] here?
Answer: Its IC50 is under 20 nM.

Question: For `Cc1cc(N2CC3CN(C(=O)c4ccc5c(-c6ccc(Cl)c(F)c6)cn(C(C)(C)C)c5n4)C3C2)nc(C)c1C(=O)O` (stereo not drawn) [Example 101, 6-(6-(1-(tert-butyl)-3-(4-chloro-3-fluorophenyl)-1H-pyrrolo[2,3-b]pyridine-6-carbonyl)-3,6-diazabicyclo[3.2.0]heptan-3-yl)-2,4-dimethylnicotinic acid], which IC50 is on record?
Answer: Its IC50 is 20 to 10000 nM.

Question: `CCOC(=O)c1ccc(N2CCN(C(=O)c3ccn4c(-c5ccc(Cl)cc5)nc(CC(C)C)c4c3)C(C)(C)C2)nc1` [Example 218, ethyl 6-(4-(3-(4-chlorophenyl)-1-isobutylimidazo[1,5-a]pyridine-7-carbonyl)-3,3-dimethylpiperazin-1-yl)nicotinate] was tested. Which IC50 did it give?
Answer: The IC50 was over 10000 nM.

Question: How did the IC50 turn out when `CC(C)Cc1nn(-c2ccc(Cl)c(F)c2)c2ccc(C(=O)N3CCNC(=O)C3)nc12` [Example 88, 4-(1-(4-chloro-3-fluorophenyl)-3-isobutyl-1H-pyrazolo[4,3-b]pyridine-5-carbonyl)piperazin-2-one] was run?
Answer: Its IC50 is over 10000 nM.

Question: With `CC1(C)CN(c2ccc(C(=O)O)cn2)CCN1C(=O)c1ccc2c(-c3ccc(Cl)c(F)c3)cn(C(C)(C)C)c2n1` [Example 137, 6-(4-(1-(tert-butyl)-3-(4-chloro-3-fluorophenyl)-1H-pyrrolo[2,3-b]pyridine-6-carbonyl)-3,3-dimethylpiperazin-1-yl)nicotinic acid] as the molecule, how does the IC50 read?
Answer: The IC50 was under 20 nM.

Question: `Cc1cccnc1Cn1cc(-c2ccc(Cl)c(F)c2)c2ccc(C(=O)N3CCN(c4cc(C)c(C(=O)O)c(C)n4)CC3(C)C)nc21` [Example 193, 6-(4-(3-(4-chloro-3-fluorophenyl)-1-((3-methylpyridin-2-yl)methyl)-1H-pyrrolo[2,3-b]pyridine-6-carbonyl)-3,3-dimethylpiperazin-1-yl)-2,4-dimethylnicotinic acid hydrochloride] was tested. Which IC50 did it give?
Answer: Its IC50 is under 20 nM.

Question: `CC(C)(C)n1cc(-c2ccc(Cl)c(F)c2)c2ccc(C(=O)N3CCC4(CC3)NC(=O)NC4=O)nc21` [Example 24, 8-(1-(tert-butyl)-3-(4-chloro-3-fluorophenyl)-1H-pyrrolo[2,3-b]pyridine-6-carbonyl)-1,3,8-triazaspiro[4.5]decane-2,4-dione] was tested. Which IC50 did it give?
Answer: Its IC50 is 20 to 10000 nM.

Question: How did the IC50 turn out when `Cc1cc(N2CCN(C(=O)c3ccc4c(-c5ccc(Cl)c(F)c5)cn(Cc5ncco5)c4n3)C(C)(C)C2)nc(C)c1C(=O)O` [Example 173] was run?
Answer: The IC50 was 20 to 10000 nM.

Question: For `Cc1cc(N2CCN(C(=O)c3ccc4c(-c5ccc(F)c(F)c5)cn(C(C)(C)C)c4n3)C(C)(C)C2)nc(C)c1C(=O)O` [Example 191, 6-(4-(1-(tert-butyl)-3-(3,4-difluorophenyl)-1H-pyrrolo[2,3-b]pyridine-6-carbonyl)-3,3-dimethylpiperazin-1-yl)-2,4-dimethylnicotinic acid], which IC50 is on record?
Answer: The IC50 was under 20 nM.

Question: With `COCC(COC)n1cc(-c2ccc(Cl)c(F)c2)c2ccc(C(=O)N3CCN(c4cc(C)c(C(=O)O)c(C)n4)CC3(C)C)nc21` [Example 166, 6-(4-(3-(4-chloro-3-fluorophenyl)-1-(1,3-dimethoxypropan-2-yl)-1H-pyrrolo[2,3-b]pyridine-6-carbonyl)-3,3-dimethylpiperazin-1-yl)-2,4-dimethylnicotinic acid] as the molecule, how does the IC50 read?
Answer: Its IC50 is under 20 nM.

Question: Which IC50 does the source give for `CC(C)Cc1nn(-c2ccc(Cl)c(F)c2)c2ccc(C(=O)N3CCC4(CC3)C(=O)NCN4c3ccccc3)nc12` [Example 94, 8-(1-(4-chloro-3-fluorophenyl)-3-isobutyl-1H-pyrazolo[4,3-b]pyridine-5-carbonyl)-1-phenyl-1,3,8-triazaspiro[4.5]decan-4-one] here?
Answer: Its IC50 is over 10000 nM.

Question: With `CC1(C)CN(C(=O)c2ccc3c(-c4ccc(Cl)c(F)c4)cn(C(C)(C)C)c3n2)CCC1C(N)=O` (stereo not drawn) [Example 23, 1-(1-(tert-butyl)-3-(4-chloro-3-fluorophenyl)-1H-pyrrolo[2,3-b]pyridine-6-carbonyl)-3,3-dimethylpiperidine-4-carboxamide] as the molecule, how does the IC50 read?
Answer: The IC50 was 20 to 10000 nM.

Question: How did the IC50 turn out when `Cc1cc2c(-c3ccc(Cl)c(F)c3)cn(CC(C)C)c2nc1C(=O)N1CCN(c2cc(C)c(C(=O)O)c(C)n2)CC1(C)C` [Example 174, 6-(4-(3-(4-chloro-3-fluorophenyl)-1-isobutyl-5-methyl-1H-pyrrolo[2,3-b]pyridine-6-carbonyl)-3,3-dimethylpiperazin-1-yl)-2,4-dimethylnicotinic acid] was run?
Answer: Its IC50 is 20 to 10000 nM.

Question: Which IC50 does the source give for `CC(C)(C)n1cc(-c2ccc(Cl)c(F)c2)c2ccc(C(=O)N3CCN(c4cn[nH]c(=O)c4)CC3)nc21` [Example 208, 5-(4-(1-(tert-butyl)-3-(4-chloro-3-fluorophenyl)-1H-pyrrolo[2,3-b]pyridine-6-carbonyl)piperazin-1-yl)pyridazin-3(2H)-one] here?
Answer: The IC50 was over 10000 nM.

Question: For `CN1CCN(C(=O)c2ccc3c(-c4ccc(Cl)c(F)c4)cn(C(C)(C)C)c3n2)CC1=O` [Example 20, 4-(1-(tertbutyl)-3-(4-chloro-3-fluorophenyl)-1H-pyrrolo[2,3-b]pyridine-6-carbonyl)-1-methylpiperazin-2-one], which IC50 is on record?
Answer: Its IC50 is 20 to 10000 nM.

Question: `Cc1cc(N2CCN(C(=O)c3ccc4c(-c5ccc(Cl)c(F)c5)cn(C(C)(C)C)c4n3)[C@@H](C)C2)nc(C)c1C(=O)O` [Example 179, (S)-6-(4-(1-(tert-butyl)-3-(4-chloro-3-fluorophenyl)-1H-pyrrolo[2,3-b]pyridine-6-carbonyl)-3-methylpiperazin-1-yl)-2,4-dimethyinicotinic acid] was tested. Which IC50 did it give?
Answer: Its IC50 is 20 to 10000 nM.

Question: For `Cc1cc(N2CCN(C(=O)c3ccc4c(-c5ccc(Cl)c(F)c5)cn(Cc5cnccn5)c4n3)C(C)(C)C2)nc(C)c1C(=O)O` [Example 103, 6-(4-(3-(4-chloro-3-fluorophenyl)-1-(pyrazin-2-ylmethyl)-1H-pyrrolo[2,3-b]pyridine-6-carbonyl)-3,3-dimethylpiperazin-1-yl)-2,4-dimethylnicotinic acid], which IC50 is on record?
Answer: Its IC50 is 20 to 10000 nM.

Question: How did the IC50 turn out when `CC(C)(C)n1cc(-c2ccc(Cl)c(F)c2)c2ccc(C(=O)N3CC4(COC4)C3)nc21` [Example 10, (1-(tert-butyl)-3-(4-chloro-3-fluorophenyl)-1H-pyrrolo[2,3-b]pyridin-6-yl)(2-oxa-6-azaspiro[3.3]heptan-6-yl)methanone] was run?
Answer: Its IC50 is over 10000 nM.

Question: `CCOP(=O)(O)c1ccc(N2CCN(C(=O)c3ccc4c(-c5ccc(Cl)c(F)c5)cn(C(C)(C)C)c4n3)C(C)(C)C2)nc1` [Example 195, ethyl hydrogen (6-(4-(1-(tert-butyl)-3-(4-chloro-3-fluorophenyl)-1H-pyrrolo[2,3-b]pyridine-6-carbonyl)-3,3-dimethylpiperazin-1-yl)pyridin-3-yl)phosphonate] was tested. Which IC50 did it give?
Answer: The IC50 was 20 to 10000 nM.

Question: `CC(C)Cc1nn(-c2ccc(Cl)c(F)c2)c2ccc(C(=O)N3CCN(C)C(=O)C3)nc12` [Example 63, 4-(1-(4-chloro-3-fluorophenyl)-3-isobutyl-1H-pyrazolo[4,3-b]pyridine-5-carbonyl)-1-methylpiperazin-2-one] was tested. Which IC50 did it give?
Answer: The IC50 was over 10000 nM.

Question: With `Cc1cc(N2CCN(C(=O)c3ccc4c(-c5ccc(C(F)(F)F)nc5)cn(CC(C)C)c4n3)C(C)(C)C2)nc(C)c1C(=O)O` [Example 170, 6-(4-(1-isobutyl-3-(6-(trifluoromethyl)pyridin-3-yl)-1H-pyrrolo[2,3-b]pyridine-6-carbonyl)-3,3-dimethylpiperazin-1-yl)-2,4-dimethylnicotinic acid] as the molecule, how does the IC50 read?
Answer: Its IC50 is 20 to 10000 nM.

Question: For `CC1(C)C(=O)NCCN1C(=O)c1ccc2c(-c3ccc(Cl)c(F)c3)cn(C3CCOCC3)c2n1` [Example 30, 4-(3-(4-chloro-3-fluorophenyl)-1-(tetrahydro-2H-pyran-4-yl)-1H-pyrrolo[2,3-b]pyridine-6-carbonyl)-3,3-dimethylpiperazin-2-one], which IC50 is on record?
Answer: Its IC50 is 20 to 10000 nM.

Question: How did the IC50 turn out when `CC(C)(C)c1nc(-c2ccc(Cl)cc2)n2ccc(C(=O)N3CCN(c4ccc(C(=O)O)cn4)CC3(C)C)nc12` [Example 217, 6-(4-(8-(tert-butyl)-6-(4-chlorophenyl)imidazo[1,5-a]pyrimidine-2-carbonyl)-3,3-dimethylpiperazin-1-yl)nicotinic acid] was run?
Answer: Its IC50 is 20 to 10000 nM.

Question: Which IC50 does the source give for `Cc1cc(N2CCN(C(=O)c3ccc4c(-c5ccc(Cl)c(F)c5)cn(C5(C)CCC5)c4n3)C(C)(C)C2)nc(C)c1C(=O)O` [Example 121, 6-(4-(3-(4-chloro-3-fluorophenyl)-1-(1-methylcyclobutyl)-1H-pyrrolo[2,3-b]pyridine-6-carbonyl)-3,3-dimethylpiperazin-1-yl)-2,4-dimethylnicotinic acid] here?
Answer: The IC50 was under 20 nM.

Question: How did the IC50 turn out when `CC1(C)C(=O)NCCN1C(=O)c1ccc2c(-c3ccc(Cl)c(F)c3)cn(CC(F)(F)F)c2n1` [Example 31, 4-(3-(4-chloro-3-fluorophenyl)-1-(2,2,2-trifluoroethyl)-1H-pyrrolo[2,3-b]pyridine-6-carbonyl)-3,3-dimethylpiperazin-2-one] was run?
Answer: Its IC50 is 20 to 10000 nM.
